The values that follow come from patent US8022102B2, “Unsaturated tetracyclic tetrahydrofuran derivatives” (Janssen Pharmaceutica, NV, priority 2004, dated 2011).

Data set [1] deals with T1, human cloned 5-HT2A receptor (Homo sapiens, UniProt P28223).
T1 construct: expressed in transfected cells; host or cells: L929 cells
The data set can be described thus: In vitro binding affinity for 5-HT2A receptor (radioligand binding). In outline: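 Competition binding used human cloned 5-HT2A receptor expressed in L929 cells with [^125I]R91150 as radioligand, incubated with varying test-compound concentrations to equilibrium. Bound and free radioactivity were separated and receptor-bound activity counted.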

Data set [2] addresses T2, human cloned 5-HT2C receptor (Homo sapiens, UniProt P28335).
T2 construct: expressed in transfected cells; host or cells: CHO cells
T2 sequence (P28335 33-458): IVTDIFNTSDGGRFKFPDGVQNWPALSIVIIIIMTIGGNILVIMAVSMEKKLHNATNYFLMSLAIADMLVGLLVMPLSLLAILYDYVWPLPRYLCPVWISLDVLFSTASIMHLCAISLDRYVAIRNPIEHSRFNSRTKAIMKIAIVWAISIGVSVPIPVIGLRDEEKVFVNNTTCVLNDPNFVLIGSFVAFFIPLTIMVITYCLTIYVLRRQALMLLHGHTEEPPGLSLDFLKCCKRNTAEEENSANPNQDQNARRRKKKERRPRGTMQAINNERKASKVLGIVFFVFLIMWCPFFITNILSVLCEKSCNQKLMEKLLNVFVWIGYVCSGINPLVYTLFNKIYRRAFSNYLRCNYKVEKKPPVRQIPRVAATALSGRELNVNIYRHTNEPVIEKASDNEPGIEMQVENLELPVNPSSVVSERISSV
In words: In vitro binding affinity for 5-HT2C receptor (radioligand binding). In outline:
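Competition binding: test compound at various concentrations incubated with receptor preparation and radioligand to equilibrium. Receptor-bound radioactivity was separated from free and counted, with inhibition of radioligand binding reflecting affinity.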

For data set [3], the target named is T3, NET (Rattus norvegicus, UniProt Q9WTR4).
T3 construct: Cortex from rat brain was collected and homogenised; from tissue; host or cells: rat brain cortex
T3 sequence (Q9WTR4 1-597): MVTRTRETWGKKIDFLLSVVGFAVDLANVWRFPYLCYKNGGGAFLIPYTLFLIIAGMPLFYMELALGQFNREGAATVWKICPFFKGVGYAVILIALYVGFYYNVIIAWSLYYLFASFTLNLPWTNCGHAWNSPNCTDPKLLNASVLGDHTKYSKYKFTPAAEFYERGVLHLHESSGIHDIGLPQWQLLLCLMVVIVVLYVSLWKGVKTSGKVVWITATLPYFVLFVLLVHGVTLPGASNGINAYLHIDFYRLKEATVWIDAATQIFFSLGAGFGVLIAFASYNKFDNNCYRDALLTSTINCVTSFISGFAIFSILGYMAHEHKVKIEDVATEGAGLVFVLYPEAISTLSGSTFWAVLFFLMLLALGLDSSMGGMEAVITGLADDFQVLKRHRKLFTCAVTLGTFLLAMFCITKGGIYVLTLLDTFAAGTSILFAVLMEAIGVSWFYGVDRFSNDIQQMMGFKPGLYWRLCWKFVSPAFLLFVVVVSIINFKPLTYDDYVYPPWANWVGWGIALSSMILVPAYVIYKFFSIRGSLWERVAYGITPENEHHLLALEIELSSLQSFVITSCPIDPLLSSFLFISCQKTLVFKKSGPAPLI
The data set can be described thus: In vitro determination of NET reuptake inhibition ([3H]Nixosetine binding, rat brain cortex). As for the experimental part: Cortex from rat brain was collected and homogenised using an Ultra-Turrax T25 and a Dual homogeniser in ice-cold homogenising buffer containing Tris, NaCl and KCl (50 mM, 120 mM and 5 mM, respectively, pH 7.4) prior to dilution to an appropriate protein concentration optimised for specific and non-specific binding. […] Membrane-bound activity was detected by filtration through a Packard Filtermate harvester onto GF/B Unifilterplates, washed with ice-cold Tris-HCl buffer, containing NaCl and KCl (50 mM, 120 mM and 4 mM; pH 7.4; 6×0.5 ml). Filters were allowed to dry for 24 h before adding scintillation fluid. Scintillation fluid was allowed to saturate filters for 24 h before counting in a Topcount scintillation counter. Percentage specific bound and competition binding curves were calculated using S-Plus software (Insightful).

Data set [4] concerns the target T4, human Dopamine D2L receptor (Homo sapiens, UniProt P14416).
T4 construct: expressed in transfected cells; host or cells: CHO cells
The data set can be described thus: In vitro binding affinity for human D2L receptor ([3H]Spiperone). In outline:
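Membranes from CHO cells expressing human D2L incubated 30 min at 37° C. with [3H]Spiperone (diluted to 2 nmol/L before addition) in Tris-HCl buffer, pH 7.7, with NaCl, CaCl2, MgCl2, KCl. Non-specific binding defined with 10^−6 mol/l Butaclamol; filtered, scintillation-counted, competition curves fitted.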

Where [5] appears, read: human cloned 5-HT2A receptor, radioligand binding, read-out: h-5HT2A (converted).
Setting [6] is: human cloned 5-HT2C receptor, radioligand binding, read-out: h-5HT2C (converted).
[7] abbreviates: rat brain cortex, [3H]Nixosetine, read-out: NET Reuptake Inhibition (converted).
Where [8] appears, read: human D2L receptor-transfected CHO cell membranes, [3H]Spiperone, read-out: h-D2L (converted).

Counter-ions that a name gives are not always drawn. Like-named read-outs stand apart in the source and are kept apart here.

T1 sequence (P28223 whole entry): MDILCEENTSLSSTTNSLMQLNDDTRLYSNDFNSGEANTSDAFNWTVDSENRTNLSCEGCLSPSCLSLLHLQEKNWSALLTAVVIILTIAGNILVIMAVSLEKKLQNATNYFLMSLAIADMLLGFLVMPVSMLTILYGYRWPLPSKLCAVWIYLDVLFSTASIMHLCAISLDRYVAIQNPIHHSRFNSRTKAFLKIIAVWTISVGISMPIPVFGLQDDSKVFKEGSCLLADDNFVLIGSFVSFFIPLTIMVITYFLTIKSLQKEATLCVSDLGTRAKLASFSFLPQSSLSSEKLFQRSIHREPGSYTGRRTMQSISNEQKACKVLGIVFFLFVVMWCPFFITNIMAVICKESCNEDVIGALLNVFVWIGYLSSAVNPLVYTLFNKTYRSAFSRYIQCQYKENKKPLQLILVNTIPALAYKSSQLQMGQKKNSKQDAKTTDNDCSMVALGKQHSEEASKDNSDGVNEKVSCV
T4 sequence (P14416 whole entry): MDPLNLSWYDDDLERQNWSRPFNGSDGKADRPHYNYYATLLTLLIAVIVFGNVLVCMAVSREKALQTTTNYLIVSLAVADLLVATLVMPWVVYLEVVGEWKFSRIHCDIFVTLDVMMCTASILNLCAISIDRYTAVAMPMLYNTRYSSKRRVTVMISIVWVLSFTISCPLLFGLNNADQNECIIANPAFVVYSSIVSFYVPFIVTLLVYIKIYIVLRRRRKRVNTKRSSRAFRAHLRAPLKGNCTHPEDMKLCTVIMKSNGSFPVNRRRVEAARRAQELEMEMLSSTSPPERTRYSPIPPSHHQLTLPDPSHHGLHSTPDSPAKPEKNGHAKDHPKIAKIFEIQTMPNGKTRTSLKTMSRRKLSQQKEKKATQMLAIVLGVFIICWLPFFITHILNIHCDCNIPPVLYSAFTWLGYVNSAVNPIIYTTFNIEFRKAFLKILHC

For orientation: melting point means the temperature, or range, at which the solid turns liquid. `CCNCC1CC2=C(O1)c1cc(F)ccc1Sc1ccccc12` (stereo not drawn) (as salt: oxalate) [Compound 18] gave a melting point of 240.7 °C.

For the compound `CN(C)CC1CC2=C(O1)c1ccccc1Cc1ccccc12` (stereo not drawn) (as salt: oxalate) [Compound 22], the melting point turned out to be 172.8 °C.

`CCCn1c2c(c3ccccc31)C1=C(CC(CNC)O1)c1ccccc1S2` (stereo not drawn) [Compound 93]: the IC50 was 25.1 nM in data set [1] (setting [5]), 10 nM in data set [2] (setting [6]), 100 nM in data set [3] (setting [7]) and 398 nM in data set [4] (setting [8]).

`CCCn1c2c(c3ccccc31)C1=C(CC(CN(C)C)O1)c1ccccc1S2` (stereo not drawn) [Compound 94]: the IC50 in data set [1] (setting [5]) is 126 nM; in data set [2] (setting [6]), 39.8 nM; in data set [3] (setting [7]), 1260 nM; in data set [4] (setting [8]), 1000 nM.

Regarding `C=CCn1c2c(c3ccccc31)C1=C(CC(CNC)O1)c1ccccc1S2` (stereo not drawn) [Compound 95], the IC50 was 7.94 nM in data set [1] (setting [5]), 6.31 nM in data set [2] (setting [6]), 158 nM in data set [3] (setting [7]) and 398 nM in data set [4] (setting [8]).

As for `CN(CC(=O)O)C[C@H]1CC2=C(O1)c1cc(F)ccc1Cc1ccccc12` [Compound 107], the melting point turned out to be 194.7 °C. The IC50 in data set [1] (setting [5]) is 10 nM. Besides, in data set [2] (setting [6]), the IC50 is 7.94 nM. For the same compound, in data set [4] (setting [8]), the IC50 was 3980 nM.

For the compound `CN(CCC(=O)O)C[C@H]1CC2=C(O1)c1cc(F)ccc1Cc1ccccc12` [Compound 108], the IC50 in data set [1] (setting [5]) was 12.6 nM; in data set [2] (setting [6]), 12.6 nM; in data set [3] (setting [7]), 398 nM; in data set [4] (setting [8]) it was 3980 nM.

For the compound `CN(C/C=C/C(=O)O)C[C@H]1CC2=C(O1)c1cc(F)ccc1Cc1ccccc12` [Compound 109], the IC50 in data set [1] (setting [5]) is 15.8 nM; in data set [2] (setting [6]), 12.6 nM; in data set [3] (setting [7]) it was 398 nM; in data set [4] (setting [8]) it was 3160 nM.

`CN(C/C=C/c1ccccc1)C[C@H]1CC2=C(O1)c1cc(F)ccc1Cc1ccccc12` [Compound 110]: the IC50 is 12.6 nM in data set [1] (h-5HT2A), 5.01 nM in data set [2] (h-5HT2C), 1000 nM in data set [3] (NET Reuptake Inhibition) and 158 nM in data set [4] (h-D2L).

Regarding `CCOC(=O)CN(C)C[C@H]1CC2=C(O1)c1cc(F)ccc1Cc1ccccc12` [Compound 113], the IC50 in data set [1] (setting [5]) was 15.8 nM; in data set [2] (setting [6]) it was 10 nM; in data set [3] (setting [7]), 3980 nM; in data set [4] (setting [8]) it was 1580 nM.

Turning to `CNC(=O)CN(C)C[C@H]1CC2=C(O1)c1cc(F)ccc1Cc1ccccc12` [Compound 116], the IC50 in data set [1] (setting [5]) is 10 nM; in data set [2] (setting [6]), 7.94 nM; in data set [3] (setting [7]), 2510 nM; in data set [4] (setting [8]), 3160 nM.

As to `CN(CC(=O)NS(C)(=O)=O)C[C@H]1CC2=C(O1)c1cc(F)ccc1Cc1ccccc12` [Compound 120], the melting point amounted to 88.5 °C.

Take `CCS(=O)(=O)N(C)CC1CC2=C(O1)c1cc(F)ccc1Cc1ccccc12` (stereo not drawn) [Compound 127]: the IC50 is 200 nM in data set [1] (setting [5]), 10 nM in data set [2] (setting [6]), more than 10000 nM in data set [3] (setting [7]) and more than 10000 nM in data set [4] (setting [8]).

Turning to `CN(C)CC1CC2=C(O1)c1ccsc1Cc1ccccc12` (stereo not drawn) [Compound 131], the melting point was 174 to 176 °C. Besides, in data set [1] (setting [5]), the IC50 is 39.8 nM. The IC50 in data set [2] (setting [6]) is 7.94 nM. Also, the IC50 in data set [3] (setting [7]) was 794 nM. The IC50 in data set [4] (setting [8]) is 200 nM.

`CNCC1CC2=C(O1)c1ccc(F)cc1Cc1ccccc12` (stereo not drawn) [Compound 135]: the IC50 in data set [1] (setting [5]) was 5.01 nM; in data set [2] (setting [6]) it was 2.51 nM; in data set [3] (setting [7]), 631 nM; in data set [4] (setting [8]) it was 3160 nM.

`CNCC1CC2=C(O1)c1c(F)cccc1Cc1ccccc12` (stereo not drawn) [Compound 136]: the IC50 in data set [1] (setting [5]) is 25.1 nM; in data set [2] (setting [6]), 2 nM; in data set [3] (setting [7]), 100 nM; in data set [4] (setting [8]) it was 1580 nM.

`CN(C)CCC1CC2=C(O1)c1cc(F)ccc1Cc1ccccc12` (stereo not drawn) [Compound 137]: the IC50 in data set [1] (setting [5]) is 12.6 nM; in data set [2] (setting [6]) it was 3.16 nM; in data set [3] (setting [7]), 158 nM; in data set [4] (setting [8]), 1580 nM.
